{"source": "paper PMC9779714", "about": "“Enhanced Therapeutic Effect of Optimized Melittin-dKLA, a Peptide Agent Targeting M2-like Tumor-Associated Macrophages in Triple-Negative Breast Cancer” (International Journal of Molecular Sciences, 2022)", "key": {"red blood cells": {"test_system": "red blood cells", "experiment": "Hemolysis assay on mouse red blood cells", "format": "cell-based, BALB/c mouse", "details": "mouse red blood cells in PBS, peptides 1-40 μM, 4 h at 37 °C, OD 450 nm of supernatant, 2% Triton X-100 positive control, mean of n = 3", "method": "Melittin has been well-documented to have strong hemolytic effects. To diminish such adverse effects, several truncated melittin were synthesized and analyzed in vitro (Figure 2A). Mouse blood cells were treated with varying concentrations of peptides for 4 h, and the optical density was measured using a microplate reader.\nFigure 2 Melittin fragments have fewer hemolytic effects than melittin. (A) Amino acid sequence of melittin and melittin-truncated peptide. (B) Hemolysis of red blood cells treated with FITC-conjugated melittin or FITC-conjugated melittin fragments at concentrations ranging from 1 μM to 40 μM and incubated at 37 °C for 4 h. […] The optical density of hemoglobin released supernatant was measured at 450 nm. […]\nFigure 4 Characterization of the optimized hybrid peptide drug, PEG-melittin-dKLA 8-26. […] The optical density was measured at 490 nm. […] The optical density of hemoglobin released in the supernatant was measured at 450 nm. […]\nBlood was collected from each BALB/c mouse. […] The optical density of the samples was measured at 450 nm using a microplate reader (Molecular Devices). The percentage of hemolysis was calculated using the following equation: hemolysis (%) = (OD450 nm sample − OD450 nm negative control)/(OD450 nm positive control − OD450 nm negative control) × 100%. All data are expressed as the mean ± SEM of three independent experiments."}, "[1]": {"test_system": "THP-1-derived M2 macrophages", "experiment": "Flow cytometry binding of FITC-conjugated peptides to M2 macrophages", "format": "cell-based, human", "details": "100 nM FITC-conjugated peptides, 1 h, percentage of FITC-positive cells, n = 3", "method": "To address the binding ability of truncated melittin peptides to M2 macrophages, fluorescein isothiocyanate (FITC)-conjugated peptides were synthesized and incubated with M2 macrophages, and the percentage of FITC-positive cells was measured using flow cytometry. […] Next, to confirm and compare the binding capabilities of melittin and melittin 8-26 to different macrophage lineages, including M0, M1, and M2, FITC-conjugated peptides were tested on each macrophage phenotype, and their binding capabilities were measured by flow cytometry. […]\nFigure 3 Binding of melittin fragments to the THP-1-derived M2 macrophages. […] (A) Melittin or melittin fragment affinity for M2 macrophages was measured using flow cytometry. […] (B) The affinity of melittin or melittin 8-26 for macrophages was detected by flow cytometry. TEXT PRINTED IN THE PICTURE: (B) Melittin: M0: 21.78; M1: 17.22; M2: 46.02 | (B) Melittin 8-26: M0: 26.8; M1: 14.74; M2: 34.66 DOUBTS OF THE COPYIST ABOUT THIS PICTURE: Panel B: the tiny quadrant labels (UL 0.00, UR 0.00, and LL values such as about 78.22, 53.98, 73.20, 85.26, 65.34) are too small, blurred or partly hidden by the dots to read with certainty, so they are left out. / Panel B: no measure or unit is printed with the large quadrant numbers. […]"}}}
{"substance": "melittin", "values": [{"measurement": "concentration at which hemolysis was observed", "setting": "red blood cells", "result": "above 5 μM"}, {"measurement": "binding affinity to M2 macrophages (in words)", "setting": "[1]", "result": "highest binding affinity"}]}
